Source: ChEMBL document CHEMBL1201862, “PubChem BioAssay data set” (2004)
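96-well plates; 48 h exposure; 5 concentrations. Endpoints by linear interpolation between flanking doses. Not reached: highest tested concentration assigned. GI50 = concentration required for 50% inhibition of growth.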 The source made the active and inactive calls. Rule as the data show it: active = GI50 up to about 1.1 µM and inactive = higher.

Tests used:
Assay in all cases: NCI-60 cell line screen, 48 h
K562 = test system: K562
HCT-116 = test system: HCT-116
RXF 393 = test system: RXF 393
SK-MEL-5 = test system: SK-MEL-5
SF-539 = test system: SF-539
CCRF-CEM = test system: CCRF-CEM
HT-29 = test system: HT-29
ACHN = test system: ACHN
SK-MEL-28 = test system: SK-MEL-28
SF-295 = test system: SF-295
HCC 2998 = test system: HCC 2998
Malme-3M = test system: Malme-3M
UACC-62 = test system: UACC-62
DMS-114 = test system: DMS-114
SW-620 = test system: SW-620
CAKI-1 = test system: CAKI-1
M19-MEL = test system: M19-MEL
SK-MEL-2 = test system: SK-MEL-2
HOP-92 = test system: HOP-92
KM-20L2 = test system: KM-20L2
LXFL 529 = test system: LXFL 529
IGROV-1 = test system: IGROV-1
LOX IMVI = test system: LOX IMVI
SNB-75 = test system: SNB-75
OVCAR-4 = test system: OVCAR-4
U-251 = test system: U-251
786-0 = test system: 786-0
COLO 205 = test system: COLO 205
SK-OV-3 = test system: SK-OV-3
UO-31 = test system: UO-31
KM12 = test system: KM12
OVCAR-8 = test system: OVCAR-8
SN12C = test system: SN12C
XF498 = test system: XF498
MOLT-4 = test system: MOLT-4
SF-268 = test system: SF-268
RXF 631 = test system: RXF 631
NCI-H23 = test system: NCI-H23
M14 = test system: M14
HOP-62 = test system: HOP-62
NCI-H226 = test system: NCI-H226
UACC-257 = test system: UACC-257
A498 = test system: A498
SNB-78 = test system: SNB-78
A549 = test system: A549
HOP-18 = test system: HOP-18
EKVX = test system: EKVX
OVCAR-5 = test system: OVCAR-5
TK-10 = test system: TK-10
SR = test system: SR
OVCAR-3 = test system: OVCAR-3
DMS-273 = test system: DMS-273
DLD-1 = test system: DLD-1
SNB-19 = test system: SNB-19
NCI-H522 = test system: NCI-H522
HL-60 = test system: HL-60

Measured: GI50

O=C1CN=C(c2ccccc2)c2ccncc2N1
inactive: K562 > 100 µM | HCT-116 > 100 µM | RXF 393 > 100 µM | SK-MEL-5 > 100 µM | SF-539 > 100 µM | CCRF-CEM > 100 µM | HT-29 > 100 µM | ACHN > 100 µM | SK-MEL-28 > 100 µM | SF-295 > 100 µM | HCC 2998 > 100 µM | Malme-3M > 100 µM | UACC-62 > 100 µM | DMS-114 > 100 µM | SW-620 > 100 µM | CAKI-1 > 100 µM | M19-MEL > 100 µM | SK-MEL-2 > 100 µM | HOP-92 > 100 µM | KM-20L2 > 100 µM | LXFL 529 > 100 µM | IGROV-1 > 100 µM | LOX IMVI > 100 µM | SNB-75 > 100 µM | OVCAR-4 > 100 µM | U-251 > 100 µM | 786-0 > 100 µM | COLO 205 > 100 µM | SK-OV-3 > 100 µM | UO-31 > 100 µM | KM12 16.2 µM | OVCAR-8 > 100 µM | SN12C > 100 µM | XF498 > 100 µM | MOLT-4 > 100 µM | SF-268 > 100 µM | RXF 631 > 100 µM | NCI-H23 > 100 µM | M14 > 100 µM | HOP-62 > 100 µM | NCI-H226 > 100 µM | UACC-257 26.6 µM | A498 > 100 µM | SNB-78 > 100 µM | A549 > 100 µM | HOP-18 > 100 µM | EKVX > 100 µM | OVCAR-5 > 100 µM | TK-10 33.3 µM | SR > 100 µM | OVCAR-3 > 100 µM | DMS-273 > 100 µM | DLD-1 > 100 µM | SNB-19 > 100 µM | NCI-H522 > 100 µM | HL-60 > 100 µM
